The target of one test is BRD4-BD1 (44-164) (Homo sapiens (Human), UniProt O60885). Put plainly: Alphascreen binding assay BRD4-BD1. The settings on record: BRD4(1) H4; read-out: Biochemical activity (IC50 μM) BRD4(1) H4. The gist of the method:
(§1)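 In this competition format, compounds displace a biotinylated tetra-acetyl H4 peptide from E. coli-expressed human BRD4 bromodomain constructs captured on nickel chelate beads. The reaction runs at pH 7.5 with 2 mM DTT and detergent for 1 h at room temperature before a 30 min bead step.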

A further test deals with bromodomain. Briefly: at least one of the bromodomain cell assays of Example 57. The class given is cell-based. As to conditions: at least one of the bromodomain cell assays described in Example 57; read-out: IC50 in at least one of the bromodomain cell assays.
Another test deals with MV-4-11 cells. Briefly: Oncology cell growth assay MV-4-11 (CellTiter Glo). The class given is cell-based. The gist of the method: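 Growth read by CellTiter Glo luminescence after 72 h compound treatment of MLL-AF4-bearing MV-4-11 cells (3000/well). Titration: 8 points, 1:3 steps, maximum 10 μM, 0.2% DMSO final. Data normalized to DMSO wells, four-parameter fit gives pIC50.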

For another test, the target named is BRD4-BD12 (1-477) (Homo sapiens (Human), UniProt O60885). Briefly: Alphascreen binding assay BRD4-BD12. As to conditions: BRD4(1 2) H4; read-out: Biochemical activity (IC50 μM) BRD4(1 2) H4. In short, it runs like this:
as §1
On the technique in general: Bead proximity is the source of the signal in Alpha formats.

Where [1] appears, read: Homo sapiens, MV4-11, 72 h; read-out: Cell activity (IC50 μM) MV-4-11 3d-Growth.

Like-named read-outs stand apart in the source and are kept apart here.

The text below walks through data of patent publication US10519177B2, “Heterocyclic compounds and uses thereof” (Plexxikon Inc., priority 2013, dated 2019).

With “1-(benzenesulfonyl)-5-(3,5-dimethylisoxazol-4-yl)pyrrolo[2,3-b]pyridine-3-carboxylic acid [P-0169]”, the IC50 at BRD4-BD1 (44-164) is less than 1 µM; in the test with bromodomain it was less than 10000 nM.
`Cc1noc(C)c1-c1cnc2c(c1)c(C(O)C1CCC(F)(F)CC1)cn2C` (centres unmarked) [P-0101, (4,4-difluorocyclohexyl)-[5-(3,5-dimethylisoxazol-4-yl)-1-methyl-pyrrolo[2,3-b]pyridin-3-yl]methanol]: the IC50 was less than 1 µM at BRD4-BD1 (44-164) and less than 1 µM with MV-4-11 cells (Homo sapiens, MV4-11, 72 h, read-out: Cell activity (IC50 μM) MV-4-11 3d-Growth).
On to `Cc1noc(C)c1-c1cnc2c(c1)c(CC1CCN(C(=O)Nc3ccccc3)CC1)cn2C` [P-0114, 4-[[5-(3,5-dimethylisoxazol-4-yl)-1-methyl-pyrrolo[2,3-b]pyridin-3-yl]methyl]-N-phenyl-piperidine-1-carboxamide], for which the figures for the IC50 on BRD4-BD1 (44-164), in the test with bromodomain and in the test with MV-4-11 cells (setting [1]) were less than 1 µM, less than 10000 nM and less than 1 µM, respectively.
Turning to `CCS(=O)(=O)N1CCC(Cc2cn(C)c3ncc(-c4c(C)noc4C)cc23)CC1` [P-0116, 4-[3-[(1-ethylsulfonyl-4-piperidyl)methyl]-1-methyl-pyrrolo[2,3-b]pyridin-5-yl]-3,5-dimethyl-isoxazole], the IC50 is less than 1 µM on BRD4-BD1 (44-164), less than 10000 nM in the test with bromodomain and 1 to 10 µM in the test with MV-4-11 cells (setting [1]).
In the case of `Cc1noc(C)c1-c1cnc2c(c1)c(CC1CCN(S(=O)(=O)C3CCCC3)CC1)cn2C` [P-0119, 4-[3-[(1-cyclopentylsulfonyl-4-piperidyl)methyl]-1-methyl-pyrrolo[2,3-b]pyridin-5-yl]-3,5-dimethyl-isoxazole], the results for the IC50 at BRD4-BD1 (44-164), in the test with bromodomain and in the test on MV-4-11 cells (setting [1]) were 1 to 10 µM, less than 10000 nM and 1 to 10 µM, respectively.
For `Cc1noc(C)c1-c1cnc2c(-c3cnn(C)c3)cn(Cc3ccccn3)c2c1` [P-0198, 3,5-dimethyl-4-[3-(1-methylpyrazol-4-yl)-1-(2-pyridylmethyl)pyrrolo[3,2-b]pyridin-6-yl]isoxazole], at BRD4-BD1 (44-164), the IC50 is less than 1 µM.
Still for that read-out and setting: then `Cc1noc(C)c1-c1cnc2c(-c3cn[nH]c3)cn(C(C)c3ccccc3)c2c1` (centres unmarked) [P-0199, 3,5-dimethyl-4-[1-(1-phenyl-ethyl)-3-(1H-pyrazol-4-yl)pyrrolo[3,2-b]pyridin-6-yl]isoxazole], with less than 1 µM; and `CCn1cc(-c2cn(C(C)c3ccccc3)c3cc(-c4c(C)noc4C)cnc23)cn1` (centres unmarked) [P-0200, 4-[3-(1-ethylpyrazol-4-yl)-1-(1-phenylethyl)pyrrolo[3,2-b]pyridin-6-yl]-3,5-dimethyl-isoxazole], with less than 1 µM.
For the molecule `C=CCn1cc(-c2cn(C(C)c3ccccc3)c3cc(-c4c(C)noc4C)cnc23)cn1` (centres unmarked) [P-0201, 4-[3-(1-allylpyrazol-4-yl)-1-(1-phenylethyl)pyrrolo[3,2-b]pyridin-6-yl]-3,5-dimethyl-isoxazole], the IC50 on BRD4-BD1 (44-164) was less than 1 µM.
As to `Cc1noc(C)c1-c1cnc2c(-c3cnn(CC(F)(F)F)c3)cn(C(C)c3ccccc3)c2c1` (centres unmarked) [P-0202, 3,5-dimethyl-4-[1-(1-phenyl-ethyl)-3-[1-(2,2,2-trifluoro-ethyl)pyrazol-4-yl]pyrrolo[3,2-b]pyridin-6-yl]isoxazole], the values for the IC50 at BRD4-BD1 (44-164), with bromodomain and in the test on MV-4-11 cells (setting [1]) were less than 1 µM, less than 10000 nM and less than 1 µM, respectively.
For `COCCn1cc(-c2cn(C(C)c3ccccc3)c3cc(-c4c(C)noc4C)cnc23)cn1` (centres unmarked) [P-0203, 4-[3-[1-(2-methoxyethyl)pyrazol-4-yl]-1-(1-phenyl-ethyl)pyrrolo[3,2-b]pyridin-6-yl]-3,5-dimethyl-isoxazole], on BRD4-BD1 (44-164), the IC50 is less than 1 µM.
In the case of `Cc1noc(C)c1-c1cnc2c(-c3cnn(C4CCOC4)c3)cn(C(C)c3ccccc3)c2c1` (centres unmarked) [P-0204, 3,5-dimethyl-4-[1-(1-phenyl-ethyl)-3-(1-tetrahydrofuran-3-ylpyrazol-4-yl)pyrrolo[3,2-b]pyridin-6-yl]isoxazole], the IC50 at BRD4-BD1 (44-164) is less than 1 µM.
Regarding `Cc1nn(C)cc1-c1cn(C(C)c2ccccc2)c2cc(-c3c(C)noc3C)cnc12` (centres unmarked) [P-0205, 4-[3-(1,3-dimethylpyrazol-4-yl)-1-(1-phenylethyl)pyrrolo[3,2-b]pyridin-6-yl]-3,5-dimethyl-isoxazole], the IC50 on BRD4-BD1 (44-164) is less than 1 µM.
Take `Cc1noc(C)c1-c1cnc2c(-c3cnn(C)c3)cn(C(C(=O)O)c3ccccc3)c2c1` (centres unmarked) [P-0206, 2-[6-(3,5-dimethylisoxazol-4-yl)-3-(1-methylpyrazol-4-yl)pyrrolo[3,2-b]pyridin-1-yl]-2-phenyl-acetic acid]: the IC50 at BRD4-BD1 (44-164) is less than 1 µM.
In the case of `Cc1noc(C)c1-c1cnc2c(-c3cnn(C)c3)cn(C(C(=O)NC3CC3)c3ccccc3)c2c1` (centres unmarked) [P-0207, N-cyclopropyl-2-[6-(3,5-dimethylisoxazol-4-yl)-3-(1-methylpyrazol-4-yl)pyrrolo[3,2-b]pyridin-1-yl]-2-phenyl-acetamide], the IC50 on BRD4-BD1 (44-164) is less than 1 µM.
Take `Cc1noc(C)c1-c1cnc2c(-c3cnn(C)c3)cn(CC3CCC(F)(F)CC3)c2c1` [P-0209, 4-[1-[(4,4-difluorocyclohexyl)methyl]-3-(1-methylpyrazol-4-yl)pyrrolo[3,2-b]pyridin-6-yl]-3,5-dimethyl-isoxazole]: the IC50 on BRD4-BD1 (44-164) is less than 1 µM.
Take `Cc1noc(C)c1-c1cnc2c(-c3cnn(C(F)F)c3)cn(CC3CCC(F)(F)CC3)c2c1` [P-0210, 4-[1-[(4,4-difluorocyclohexyl)methyl]-3-[1-(difluoromethyl)pyrazol-4-yl]pyrrolo[3,2-b]pyridin-6-yl]-3,5-dimethyl-isoxazole]: at BRD4-BD1 (44-164), the IC50 is less than 1 µM.
As to `Cc1noc(C)c1-c1cnc2c(-c3cnn(C)c3)cn(CC3(F)CCCCC3)c2c1` [P-0212, 4-[1-[(1-fluorocyclohexyl)methyl]-3-(1-methylpyrazol-4-yl)pyrrolo[3,2-b]pyridin-6-yl]-3,5-dimethyl-isoxazole], at BRD4-BD1 (44-164), the IC50 was less than 1 µM.
Regarding `Cc1noc(C)c1-c1cnc2c(-c3cnn(C)c3)cn(CC3CC(F)(F)C3)c2c1` [P-0213, 4-[1-[(3,3-difluorocyclobutyl)methyl]-3-(1-methylpyrazol-4-yl)pyrrolo[3,2-b]pyridin-6-yl]-3,5-dimethyl-isoxazole], at BRD4-BD1 (44-164), the IC50 was less than 1 µM.
In the case of `Cc1noc(C)c1-c1cnc2c(-c3cc(C(F)(F)F)n[nH]3)cn(C(C)c3ccccc3)c2c1` (centres unmarked) [P-0215, 3,5-dimethyl-4-[1-(1-phenylethyl)-3-[3-(trifluoromethyl)-1H-pyrazol-5-yl]pyrrolo[3,2-b]pyridin-6-yl]isoxazole], on BRD4-BD1 (44-164), the IC50 was less than 1 µM.
For the molecule `Cc1noc(C)c1-c1cnc2c(-c3cnn(C4CC4)c3)cn(C(C)c3ccccc3)c2c1` (centres unmarked) [P-0216, 4-[3-(1-cyclopropylpyrazol-4-yl)-1-(1-phenylethyl)pyrrolo[3,2-b]pyridin-6-yl]-3,5-dimethyl-isoxazole], on BRD4-BD1 (44-164), the IC50 is less than 1 µM.
`Cc1noc(C)c1-c1cnc2c(-c3cnn(C)c3)cn(C(C)c3ccccn3)c2c1` (centres unmarked) [P-0217, 3,5-dimethyl-4-[3-(1-methylpyrazol-4-yl)-1-[1-(2-pyridyl)ethyl]pyrrolo[3,2-b]pyridin-6-yl]isoxazole]: the IC50 is less than 1 µM at BRD4-BD1 (44-164), less than 10000 nM in the test with bromodomain and less than 1 µM in the test on MV-4-11 cells (setting [1]).
On to `Cc1noc(C)c1-c1cnc2c(-c3cnn(C)c3)cn([C@@H](C)c3ccccc3)c2c1` [P-0222, 3,5-dimethyl-4-[3-(1-methylpyrazol-4-yl)-1-[(1S)-1-phenylethyl]pyrrolo[3,2-b]pyridin-6-yl]isoxazole], for which, on BRD4-BD1 (44-164), the IC50 is less than 1 µM.
Turning to `Cc1noc(C)c1-c1cnc2c(I)cn(C(C)c3ccccc3)c2c1` (centres unmarked) [P-0224, 4-[3-iodo-1-(1-phenylethyl)pyrrolo[3,2-b]pyridin-6-yl]-3,5-dimethyl-isoxazole], the IC50 on BRD4-BD1 (44-164) is less than 1 µM.
Take `[2H]C([2H])(C1CC(F)(F)C1)n1cc(-c2cnn(CC(F)(F)F)c2)c2ncc(-c3c(C)noc3C)cc21` [P-0257, 4-[1-[dideuterio-(3,3-difluorocyclobutyl)methyl]-3-[1-(2,2,2-trifluoroethyl)pyrazol-4-yl]pyrrolo[3,2-b]pyridin-6-yl]-3,5-dimethyl-isoxazole]: the IC50 at BRD4-BD1 (44-164) was less than 1 µM; on BRD4-BD12 (1-477) it was less than 1 µM; in the test on bromodomain it was less than 10000 nM; in the test on MV-4-11 cells (setting [1]), less than 1 µM.
Consider `[2H]C([2H])(C1CCC(F)(F)CC1)n1cc(I)c2ncc(-c3c(C)noc3C)cc21` [P-0262, 4-[1-[dideuterio-(4,4-difluorocyclohexyl)methyl]-3-iodo-pyrrolo[3,2-b]pyridin-6-yl]-3,5-dimethyl-isoxazole], for which the IC50 on BRD4-BD1 (44-164) was less than 1 µM; on BRD4-BD12 (1-477), less than 1 µM; with bromodomain it was less than 10000 nM; in the test on MV-4-11 cells (setting [1]), less than 1 µM.
`Cc1n[nH]cc1-c1cnc2ccn(CC3CCC(F)(F)CC3)c2c1` [P-0292, l-[(4,4-difluorocyclohexyl)methyl]-6-(3-methyl-1H-pyrazol-4-yl)pyrrolo[3,2-b]pyridine]: the figures for the IC50 on BRD4-BD1 (44-164), with bromodomain and in the test on MV-4-11 cells (setting [1]) were 10 to 200 µM, less than 10000 nM and 1 to 10 µM, respectively.
With “[6-(3,5-dimethylisoxazol-4-yl)-1H-pyrrolo[3,2-b]pyridin-3-yl]-tetrahydrothiopyran-4-yl-methanone [P-0091]”, the figures for the IC50 on BRD4-BD1 (44-164), in the test on bromodomain and with MV-4-11 cells (MV-4-11 3d-Growth; read-out: Cell activity (IC50 μM) MV-4-11 3d-Growth) were less than 1 µM, less than 10000 nM and 1 to 10 µM, respectively.

Usually IC50 stands for the concentration that gives 50% inhibition.
